# Laboratory results from patent US20180249707A1, “METHOD OF CONTROLLING ALGAE IN A BODY OF WATER” (priority 2013, published 2018).
# Legend:
# Microcystis aeruginosa = assay: 14-day flask exposure of Microcystis aeruginosa to BADA; type: cell-based; conditions: at concentrations comparable to Cutrine-Plus
# Experimental: (§1) The experiment was conducted for 14 days and was initiated using 100 mL BG-11 medium contained in 200 mL flasks. […] The experiment was initiated by exposing the algae to 0.2, 0.4, 0.8, 1.0, 1.2, 1.4, 1.8, and 2.0 ppm (mg/L) as BADA, 0.5 Cu/L Cutrine®-Plus. The solution was heated in a water bath and diluted to 70 mg/L using warmed deionized water. Cutrine®-Plus stock solution was made at 50 mg/L using deionized water. Three replicates of each exposure concentration, along with three replicates of an untreated reference were tested. Each sample was maintained at room temperature with 12-hours of light and 12-h dark photoperiod. The chlorophyll a concentrations of Microcystis aeruginosa through the 14 day exposure after exposure to concentrations of BADA and Cutrine®-Plus. The results are shown in TABLES 5, and 6, which show the chlorophyll a concentration and the cell density, respectively.
# Cladophora sp. = assay: 14-day flask exposure of Cladophora sp. to BADA; type: cell-based, C. kosterae
# Experimental: The experiment was conducted for 14 days and was initiated using 100 mL BG-11 medium contained in 200 mL flasks. […] The solution was heated in a water bath and diluted to 70 mg/L using warmed deionized water. The concentration of DMSO was approximately 350 mg/L in the test beakers. Cutrine®-Plus stock solution was made at 50 mg/L using deionized water. Three replicates of each exposure concentration, along with three replicates of an untreated reference were tested. Each sample was maintained at room temperature with 12-hours of light and 12-h dark photoperiod. […]
# M. aeruginosa = assay: Repeat exposure of M. aeruginosa to BADA at 25-200 ppb; type: cell-based
# Experimental: as §1
# Example 5 was repeated but using the N,N-bis-(3-aminopropyl) dodecylamine in the amounts of 200 parts per billion ((ppb) 0.2 ppm), 100 parts per billion ((ppb) 0.1 ppm), 75 parts per billion ((ppb) 0.075 ppm), 50 parts per billion ((ppb) 0.05 ppm), and 25 parts per billion ((ppb) 0.025 ppm). A control example was also repeated since the M. aeruginosa was from a different culture and the test were conducted at different times. The results are shown in TABLES 8, and 9, which show the chlorophyll a concentration and the cell density, respectively.
smiles,measurement,setting,value
"CCCCCCCCCCCCN(CCCN)CCCN [BADA, N,N-bis-(3-aminopropyl) dodecylamine]",effectiveness as an algaecide on Microcystis aeruginosa,Microcystis aeruginosa,effective
same,Extracted chlorphylll a concentrations of C. kosterae cultures,"Cladophora sp.; BADA 0.2 ppm, day 0 (initial)",14.21 μg/sample
same,Extracted chlorphylll a concentrations of C. kosterae cultures,"Cladophora sp.; BADA 0.2 ppm, day 14",11.01 μg/sample
same,Extracted chlorphylll a concentrations of C. kosterae cultures,"Cladophora sp.; BADA 0.4 ppm, day 0 (initial)",14.21 μg/sample
same,Extracted chlorphylll a concentrations of C. kosterae cultures,"Cladophora sp.; BADA 0.4 ppm, day 14",13.15 μg/sample
same,Extracted chlorphylll a concentrations of C. kosterae cultures,"Cladophora sp.; BADA 0.8 ppm, day 0 (initial)",14.21 μg/sample
same,Extracted chlorphylll a concentrations of C. kosterae cultures,"Cladophora sp.; BADA 0.8 ppm, day 14",12.54 μg/sample
same,Extracted chlorphylll a concentrations of C. kosterae cultures,"Cladophora sp.; BADA 1.0 ppm, day 0 (initial)",14.21 μg/sample
same,Extracted chlorphylll a concentrations of C. kosterae cultures,"Cladophora sp.; BADA 1.0 ppm, day 14",13.26 μg/sample
same,Extracted chlorphylll a concentrations of C. kosterae cultures,"Cladophora sp.; BADA 1.2 ppm, day 0 (initial)",14.21 μg/sample
same,Extracted chlorphylll a concentrations of C. kosterae cultures,"Cladophora sp.; BADA 1.2 ppm, day 14",11.15 μg/sample
same,Extracted chlorphylll a concentrations of C. kosterae cultures,"Cladophora sp.; BADA 1.4 ppm, day 0 (initial)",14.21 μg/sample
same,Extracted chlorphylll a concentrations of C. kosterae cultures,"Cladophora sp.; BADA 1.4 ppm, day 14",8.63 μg/sample
same,Extracted chlorphylll a concentrations of C. kosterae cultures,"Cladophora sp.; BADA 1.8 ppm, day 0 (initial)",14.21 μg/sample
same,Extracted chlorphylll a concentrations of C. kosterae cultures,"Cladophora sp.; BADA 1.8 ppm, day 14",8.70 μg/sample
same,Extracted chlorphylll a concentrations of C. kosterae cultures,"Cladophora sp.; BADA 2.0 ppm, day 0 (initial)",14.21 μg/sample
same,Extracted chlorphylll a concentrations of C. kosterae cultures,"Cladophora sp.; BADA 2.0 ppm, day 14",8.32 μg/sample
same,effectiveness as an algaecide on Cladophora sp.,Cladophora sp.; at concentrations comparable to Cutrine-Plus,effective
same,Cell density of M. aeruginosa cultures,"M. aeruginosa; BADA 25 ppb, day 0 (initial)",3.8E+05 cells/mL
same,In vivo chlorophyll a concentrations of M. aeruginosa cultures,"M. aeruginosa; BADA 25 ppb, day 0 (initial)",1.20 µg/L
same,In vivo chlorophyll a concentrations of M. aeruginosa cultures,"M. aeruginosa; BADA 25 ppb, day 1",0.67 µg/L
same,In vivo chlorophyll a concentrations of M. aeruginosa cultures,"M. aeruginosa; BADA 25 ppb, day 5",0.64 µg/L
same,In vivo chlorophyll a concentrations of M. aeruginosa cultures,"M. aeruginosa; BADA 25 ppb, day 7",1.58 µg/L
same,In vivo chlorophyll a concentrations of M. aeruginosa cultures,"M. aeruginosa; BADA 25 ppb, day 12",7.91 µg/L
same,Cell density of M. aeruginosa cultures,"M. aeruginosa; BADA 25 ppb, day 14",7.3E+06 cells/mL
same,In vivo chlorophyll a concentrations of M. aeruginosa cultures,"M. aeruginosa; BADA 25 ppb, day 14",10.06 µg/L
same,Cell density of M. aeruginosa cultures,"M. aeruginosa; BADA 50 ppb, day 0 (initial)",3.8E+05 cells/mL
same,In vivo chlorophyll a concentrations of M. aeruginosa cultures,"M. aeruginosa; BADA 50 ppb, day 0 (initial)",1.20 µg/L
same,In vivo chlorophyll a concentrations of M. aeruginosa cultures,"M. aeruginosa; BADA 50 ppb, day 1",0.48 µg/L
same,In vivo chlorophyll a concentrations of M. aeruginosa cultures,"M. aeruginosa; BADA 50 ppb, day 5",0.04 µg/L
same,In vivo chlorophyll a concentrations of M. aeruginosa cultures,"M. aeruginosa; BADA 50 ppb, day 7",0.06 µg/L
same,In vivo chlorophyll a concentrations of M. aeruginosa cultures,"M. aeruginosa; BADA 50 ppb, day 12",0.71 µg/L
same,Cell density of M. aeruginosa cultures,"M. aeruginosa; BADA 50 ppb, day 14",1.5E+06 cells/mL
same,In vivo chlorophyll a concentrations of M. aeruginosa cultures,"M. aeruginosa; BADA 50 ppb, day 14",1.93 µg/L
same,Cell density of M. aeruginosa cultures,"M. aeruginosa; BADA 75 ppb, day 0 (initial)",3.8E+05 cells/mL
same,In vivo chlorophyll a concentrations of M. aeruginosa cultures,"M. aeruginosa; BADA 75 ppb, day 0 (initial)",1.20 µg/L
same,In vivo chlorophyll a concentrations of M. aeruginosa cultures,"M. aeruginosa; BADA 75 ppb, day 1",0.50 µg/L
same,In vivo chlorophyll a concentrations of M. aeruginosa cultures,"M. aeruginosa; BADA 75 ppb, day 5",0.05 µg/L
same,In vivo chlorophyll a concentrations of M. aeruginosa cultures,"M. aeruginosa; BADA 75 ppb, day 7",0.05 µg/L
same,In vivo chlorophyll a concentrations of M. aeruginosa cultures,"M. aeruginosa; BADA 75 ppb, day 12",0.60 µg/L
same,Cell density of M. aeruginosa cultures,"M. aeruginosa; BADA 75 ppb, day 14",1.4E+06 cells/mL
same,In vivo chlorophyll a concentrations of M. aeruginosa cultures,"M. aeruginosa; BADA 75 ppb, day 14",1.77 µg/L
same,Cell density of M. aeruginosa cultures,"M. aeruginosa; BADA 100 ppb, day 0 (initial)",3.8E+05 cells/mL
same,In vivo chlorophyll a concentrations of M. aeruginosa cultures,"M. aeruginosa; BADA 100 ppb, day 0 (initial)",1.20 µg/L
same,In vivo chlorophyll a concentrations of M. aeruginosa cultures,"M. aeruginosa; BADA 100 ppb, day 1",0.55 µg/L
same,In vivo chlorophyll a concentrations of M. aeruginosa cultures,"M. aeruginosa; BADA 100 ppb, day 5",0.03 µg/L
same,In vivo chlorophyll a concentrations of M. aeruginosa cultures,"M. aeruginosa; BADA 100 ppb, day 7",0.03 µg/L
same,In vivo chlorophyll a concentrations of M. aeruginosa cultures,"M. aeruginosa; BADA 100 ppb, day 12",0.31 µg/L
same,Cell density of M. aeruginosa cultures,"M. aeruginosa; BADA 100 ppb, day 14",8.7E+05 cells/mL
same,In vivo chlorophyll a concentrations of M. aeruginosa cultures,"M. aeruginosa; BADA 100 ppb, day 14",0.98 µg/L
same,Cell density of M. aeruginosa cultures,"M. aeruginosa; BADA 200 ppb, day 0 (initial)",3.8E+05 cells/mL
same,In vivo chlorophyll a concentrations of M. aeruginosa cultures,"M. aeruginosa; BADA 200 ppb, day 0 (initial)",1.20 µg/L
same,In vivo chlorophyll a concentrations of M. aeruginosa cultures,"M. aeruginosa; BADA 200 ppb, day 1",0.50 µg/L
same,In vivo chlorophyll a concentrations of M. aeruginosa cultures,"M. aeruginosa; BADA 200 ppb, day 5",0.03 µg/L
same,In vivo chlorophyll a concentrations of M. aeruginosa cultures,"M. aeruginosa; BADA 200 ppb, day 7",0.02 µg/L
same,In vivo chlorophyll a concentrations of M. aeruginosa cultures,"M. aeruginosa; BADA 200 ppb, day 12",0.05 µg/L
same,Cell density of M. aeruginosa cultures,"M. aeruginosa; BADA 200 ppb, day 14",1.4E+05 cells/mL
same,In vivo chlorophyll a concentrations of M. aeruginosa cultures,"M. aeruginosa; BADA 200 ppb, day 14",0.16 µg/L
